Assay results taken from publication PMC5132392, “Identification of a Highly Conserved Hypothetical Protein TON_0340 as a Probable Manganese-Dependent Phosphatase” (PLoS ONE, 2016).

Molecular target: T1, TON_0340 (Thermococcus onnurineus, UniProt B6YTD8)
T1 construct: C-terminal CPD-(His)10 fusion auto-cleaved with phytate; E. coli BL21(DE3) RIPL; assay sample from dissolved crystals, EDTA-treated
T1 sequence (B6YTD8 1-268): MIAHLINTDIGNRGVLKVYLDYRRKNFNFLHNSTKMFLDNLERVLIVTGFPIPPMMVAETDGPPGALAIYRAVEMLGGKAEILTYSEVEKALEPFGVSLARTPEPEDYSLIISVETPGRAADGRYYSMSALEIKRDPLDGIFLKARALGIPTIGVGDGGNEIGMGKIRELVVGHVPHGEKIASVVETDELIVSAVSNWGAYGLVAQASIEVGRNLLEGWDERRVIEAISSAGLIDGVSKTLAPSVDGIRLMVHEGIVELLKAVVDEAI
Experiment: inorganic phosphate release (EnzChek / malachite green)
Format: biochemical
Details: 2 mM AMP, 2 mM MnCl2, 100 mM HEPES pH 7.5, 100 mM NaCl, 37°C; Mn2+-dependent

SMILES: Nc1ncnc2c1ncn2[C@@H]1O[C@H](COP(=O)(O)O)[C@@H](O)[C@H]1O [AMP]
- inorganic phosphate release (EnzChek / malachite green): The highest activity was observed with AMP
